Measurements taken from EP0165151A1, “Peptide derivatives as renin inhibitors, process for their preparation and their therapeutical application” (SANOFI, priority 1984, dated 1985).
Square brackets hold non-standard residues; d marks the D form. Peptide text beside a SMILES is read from it. * marks the point of attachment. Sta = CC(C)C[C@H](N)[C@@H](O)CC(=O)O; Isovaleryl = CC(C)CC(=O)*; Nle = CCCC[C@H](N)C(=O)O

Assay: Solubility in water
Type: physicochemical
Details: pH : 7,4
Description: Dans les mêmes conditions les composés SR 42406 sous forme de chlorhydrate et SR 43054 B possèdent une solubilité dans l'eau de 1 % et 4 % environ.

solubilité dans l'eau	solubilité dans l'eau (sous forme de chlorhydrate) [%]	Compound
soluble dans l'eau à environ %		CCCC[C@H](NC(=O)[C@H](Cc1ccccc1)NC(=O)CC(C)C)C(=O)N[C@@H](CC(C)C)[C@@H](O)CC(=O)N[C@@H](C)C(=O)N[C@@H](CC(C)C)[C@@H](O)CC(=O)N[C@@H](CCCCN)C(=O)O [SR 42 654, iVa - Phe - Nle - Sta - Ala - Sta - Lys - OH] (Isovaleryl-F[Nle][Sta]A[Sta]K-OH)
	~1	CCCC[C@H](NC(=O)[C@H](Cc1ccccc1)NC(=O)CC(C)C)C(=O)N[C@@H](CC(C)C)[C@@H](O)CC(=O)N[C@@H](C)C(=O)N[C@@H](CC(C)C)[C@@H](O)CC(=O)N[C@@H](CCCNC(=N)N)C(=O)OC [SR 42406, iVa - Phe - Nle - Sta - Ala - Sta - Arg - OMe] (Isovaleryl-F[Nle][Sta]A[Sta]R-OMe)
~4%		CCCC[C@H](NC(=O)[C@H](Cc1ccccc1)NC(=O)CC(C)C)C(=O)N[C@@H](CC(C)C)[C@@H](O)CC(=O)N[C@@H](C)C(=O)N[C@@H](CC(C)C)[C@@H](O)CC(=O)N[C@@H](CC(=O)O)C(=O)O [SR 43504 B, iVa-Phe-Nle-Sta-Ala-Sta-Asp-OH, Disel de trishydroxyméthyl-aminométhane] (Isovaleryl-F[Nle][Sta]A[Sta]D-OH)
